In US8887721B2, “Attenuation of vasoactive oxygen carrier-induced vasoconstriction” (The General Hospital Corporation, priority 2006, dated 2014):
Read-outs that look alike come from different tables or passages of the source.

Experiments:
awake lambs = type: in vivo, lamb
Text: Lambs were briefly anesthetized, given a tracheostomy, the internal jugular vein was percutaneously catheterized and a flow directed Swan Ganz catheter passed into the pulmonary artery to permit measurements of central hemodynamics and cardiac output by thermaldilution. An arterial line was placed in the carotid artery. Animals were allowed several hours to awaken from anesthesia and were studied awake and restrained in a harness. Three groups of lambs were studied: (1) “autologous whole blood” animals donated autologous blood, which was stored with heparin anti-coagulation at 4° C.—two days later they received an infusion of their 37° C. autologous whole blood (12 ml/kg over 20 minutes) while breathing at FiO2=0.3 (n=3); (2) “HBOC-201” animals received an infusion of HBOC-201 (12 ml/kg over 20 minutes) while breathing at FiO2=0.3 (n=3); and (3) “HBOC-201 after iNO” animals inhaled 80 ppm nitric oxide at FiO2=0.3 for one hour before receiving an infusion of HBOC-201 (12 ml/kg over 20 minutes) (n=5). Systemic vascular resistance (SVR) and pulmonary vascular resistance (PVR) were calculated using standard formulae as follows: [SVR ([…])=(MAP−CVP)/CO*79.96]; and [PVR ([…])=(PAP−PCWP)/CI*79.96].
(1) “Autologous whole blood” animals received an infusion of 37° C. autologous whole blood (12 ml/kg over 20 minutes) while breathing at FiO2=0.3 (n=3); (2) “HBOC-201” animals received an infusion of 37° C. HBOC-201 (12 ml/kg over 20 minutes) while breathing at FiO2=0.3 (n=3); and (3) “HBOC-201 after high and low dose iNO” animals inhaled 80 ppm nitric oxide at FiO2=0.3 for one hour before receiving an infusion of HBOC-201 (12 ml/kg over 20 minutes), which was followed by breathing 5 ppm nitric oxide at FiO2=0.3 for two hours, which was followed by breathing at FiO2=0.3 (and discontinued inhalation of nitric oxide gas) for another one hour (n=4).

plasma hemoglobin [1] = molecular target: plasma hemoglobin (Bos taurus, UniProt P01966+P02070); assay: Plasma methemoglobin concentration in awake lambs; type: in vivo, lamb
plasma hemoglobin (Bos taurus, UniProt P01966+P02070), sequence (P01966 2-142 limits assumed): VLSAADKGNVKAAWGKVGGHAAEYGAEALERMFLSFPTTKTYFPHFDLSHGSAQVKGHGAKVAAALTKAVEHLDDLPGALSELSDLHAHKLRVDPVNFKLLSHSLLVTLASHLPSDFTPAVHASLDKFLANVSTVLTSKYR
plasma hemoglobin (Bos taurus, UniProt P01966+P02070), sequence (P02070 whole entry): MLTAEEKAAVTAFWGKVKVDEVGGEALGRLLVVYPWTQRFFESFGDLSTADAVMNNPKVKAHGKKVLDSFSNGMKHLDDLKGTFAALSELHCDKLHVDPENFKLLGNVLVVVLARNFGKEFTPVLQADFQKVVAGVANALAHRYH
Text: Lambs were briefly anesthetized, given a tracheostomy, the internal jugular vein was percutaneously catheterized and a flow directed Swan Ganz catheter passed into the pulmonary artery to permit measurements of central hemodynamics and cardiac output by thermaldilution. An arterial line was placed in the carotid artery. Animals were allowed several hours to awaken from anesthesia and were studied awake and restrained in a harness. […] Systemic vascular resistance (SVR) and pulmonary vascular resistance (PVR) were calculated using standard formulae as follows: [SVR ([…])=(MAP−CVP)/CO*79.96]; and [PVR ([…])=(PAP−PCWP)/CI*79.96].
Methemoglobin concentration in plasma was measured before and after breathing 80 ppm nitric oxide for one hour (and before and after infusion of autologous whole blood or HBOC-201). […]
Plasma methemoglobin concentration was measured before and after breathing nitric oxide at various concentrations (and before and after infusion of autologous whole blood or HBOC-201).

awake mice = assay: Tail-cuff systolic blood pressure in awake mice; type: in vivo, mouse; settings: for tail systolic blood pressure after intravenous injection: awake wild type mice, 0.012 ml/g body weight i.v.
Method: The mouse was placed in a restrainer for this procedure. All mice were handled briefly and gently to inject a tetrameric hemoglobin solution into a lateral tail vein. Before injection, the tail was warmed under an infra-red heat lamp for 5 minutes to enable access to the vein. The injection volume was 0.012 ml/g body weight for each mouse. Infusion was done during the course of one minute.
With the use of volumetrically calibrated flowmeters (Cole-Parmer, Vernon Hills, Ill.), nitric oxide gas (800 ppm in nitrogen; INO Therapeutics, Clinton, […], Clinton, N.J.). The nitric oxide, nitrogen dioxide and oxygen (21%) levels were continuously monitored (INOvent delivery system, Datex-Ohmeda, Madison, Wis.).
(§1) The effects of breathing nitric oxide on systolic tail blood pressure after the infusion of murine tetrameric hemoglobin solution were monitored every 10 minutes for the 1st hour and every 20 minutes for the rest of the experiments. Blood hemoglobin and methemoglobin levels were measured every 15 minutes in the nitric oxide pretreatment group, wherein all mice breathed nitric oxide at 80 ppm for 1 hour before infusion. Hemoglobin and methemoglobin levels in whole blood and plasma were measured in additional mice after the intravenous infusion of tetrameric hemoglobin solution at 10 minutes and 60 minutes while breathing nitric oxide at 8 ppm or 80 ppm throughout the experiment.
Systolic blood pressure was measured with a non-invasive tail-cuff machine (XBP 1000, Kent Scientific, Torrington, Conn.) in wild type mice and NOS3^−/− mice. Mice were first subjected to one or two practice sessions to acclimate them to the device. The mouse was placed in a restrainer for a short period of time (<1 minute to start), then kept in the restrainer for longer times to acclimate to the device. The degree of acclimatization was judged by the absence of agitation in the device. After a few days of practice sessions, mice were restrained in a commercial mouse restraint device (Kent Scientific, Torrington, Conn.). […]
All values are expressed as mean±SEM. Data were analyzed using ANOVA. The difference in hemodynamic parameters before and after infusion of murine tetrameric hemoglobin or nitric oxide inhalation was examined by a paired t-test for repeated measurements. P values less than 0.05 were considered significant (as indicated by a * in the figures).

plasma hemoglobin [2] = molecular target: T1, plasma hemoglobin (Mus musculus, UniProt P01942+P02088); type: in vivo
T1 construct: The blood was frozen and thawed three times and then centrifuged; from tissue; host or cells: whole blood of wild type C57BL/6 mice (hemolysate, filtered, dialysed, concentrated)
T1 sequence (P01942 2-142 limits assumed): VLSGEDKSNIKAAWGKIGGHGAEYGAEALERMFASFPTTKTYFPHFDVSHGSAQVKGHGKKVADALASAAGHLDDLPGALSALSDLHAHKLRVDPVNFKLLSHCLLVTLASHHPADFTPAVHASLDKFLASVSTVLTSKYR
T1 sequence (P02088 2-147 limits assumed): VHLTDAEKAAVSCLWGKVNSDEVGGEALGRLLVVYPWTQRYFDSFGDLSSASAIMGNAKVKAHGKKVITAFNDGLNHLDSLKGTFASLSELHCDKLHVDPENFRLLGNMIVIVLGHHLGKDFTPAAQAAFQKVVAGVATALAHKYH
Method: Hemoglobin and methemoglobin concentration in whole blood and plasma were determined by the cyanomethemoglobin method measuring OD at 540 nm and 630 nm with a Spectrophotometer-Biomate 3 (Thermoelectron Corporation, Waltham, Mass.).
as §1

[3] = tested on: anesthetized wild type and NOS3−/− mice; assay: Invasive hemodynamic measurements in anesthetized mice; type: in vivo, mouse; settings: for CO (cardiac output) / CVP (central venous pressure) / Ea (arterial elastance) / HR (heart rate) / LVEDP (left ventricular end-diastolic pressure) / LVESP (left ventricular end-systolic pressure) / SVR (systemic vascular resistance) / Tau (time constant of isovolumic relaxation) / dP/dtmax (maximum rate of developed left ventricular pressure) / dP/dtmin (minimum rate of developed left ventricular pressure): mean ± SEM
Method: To explore the mechanisms by which infusion of tetrameric hemoglobin causes systemic hypertension in awake wild type mice, invasive hemodynamic measurements were performed in anesthetized wild type and NOS3^−/− mice before and three minutes after infusion of murine tetrameric hemoglobin or whole murine blood as a control. Mice were anesthetized with an intraperitoneal injection of ketamine (100 mg/kg) and xylazine (5 mg/kg). Muscle relaxation was obtained by adding pancuronium (5 μg/g) after tracheal intubation. […] Two saline-filled PE-10 catheters were inserted separately via the jugular veins; one for monitoring central venous pressure (CVP) and the other for infusion of whole blood or tetrameric hemoglobin solution. A Millar pressure-volume catheter was inserted retrograde via the right carotid artery into the left ventricle (1.4F, model SPR839, Millar Instruments Inc., Houston, Tex.). After obtaining stable hemodynamic measurements, whole blood (1.44 g Hb/kg) or murine tetrameric Hb solution (0.48 g/kg) was infused through the jugular vein, at a rate of 100 μl/min for 3 min. PVAN software was used to analyze left ventricular pressure-volume loop data (Conductance Technologies Inc., San Antonio, Tex.).

[4] = lambs breathing 80 ppm nitric oxide for one hour before HBOC-201, terminated immediately before infusion
[5] = lambs: 80 ppm nitric oxide one hour before HBOC-201, then 5 ppm after the infusion
[6] = NOS3−/− mice breathing air, three minutes after infusion
[7] = WT mice breathing air, three minutes after infusion
[8] = WT ± iNO: WT mice breathing 80 ppm NO in air for 15 min, NO discontinued, then infusion

## [N]=O [nitric oxide]
Awake lambs; lambs administered HBOC-201
  pulmonary hypertension after inhalation of 5 ppm nitric oxide was abruptly discontinued: rebounded
Awake lambs; [4]
  increase in mean arterial pressure after HBOC-201 infusion: blocked the increase
  increase in pulmonary arterial pressure after HBOC-201 infusion: did not block the increase
  increase in pulmonary vascular resistance after HBOC-201 infusion: did not block the increase
  increase in systemic vascular resistance after HBOC-201 infusion: blocked the increase
Awake lambs; [5]
  increase in mean arterial pressure after HBOC-201 infusion: blocked the increase
  increase in pulmonary arterial pressure after HBOC-201 infusion: blocked the increase
  increase in pulmonary vascular resistance after HBOC-201 infusion: blocked the increase
  increase in systemic vascular resistance after HBOC-201 infusion: blocked the increase
Plasma hemoglobin [1]; 80 ppm nitric oxide for one hour before HBOC-201, terminated at infusion
  plasma methemoglobin compared to lambs that received HBOC-201 without nitric oxide: did not result in an increase in plasma methemoglobin
Plasma hemoglobin [1]; 80 ppm nitric oxide one hour before HBOC-201, then 5 ppm after the infusion
  plasma methemoglobin compared to animals that received HBOC-201 without nitric oxide: did not result in an increase in plasma methemoglobin
Awake mice; wild type mice breathing 80 ppm nitric oxide continuously before and subsequent to infusion of murine tetrameric hemoglobin solution
  hemoglobin-induced elevation in systolic blood pressure: prevented a hemoglobin-induced elevation in systolic blood pressure
Awake mice; wild type mice breathing 80 ppm nitric oxide for 15 minutes before infusion, terminated at infusion
  hemoglobin-induced elevation in systolic blood pressure: prevented a hemoglobin-induced elevation in systolic blood pressure
Awake mice; wild type mice breathing 80 ppm nitric oxide for one hour before infusion, terminated at infusion
  hemoglobin-induced elevation in systolic blood pressure: prevented a hemoglobin-induced elevation in systolic blood pressure
Awake mice; wild type mice breathing 200 ppm nitric oxide for 7 minutes before infusion, terminated at infusion
  hemoglobin-induced elevation in systolic blood pressure: prevented a hemoglobin-induced elevation in systolic blood pressure
Plasma hemoglobin [2]; wild type mice breathing 80 ppm nitric oxide for one hour before infusion of murine tetrameric hemoglobin solution, terminated at infusion
  conversion of plasma hemoglobin to methemoglobin: < 5%
Plasma hemoglobin [2]; wild type mice breathing 80 ppm nitric oxide while given murine tetrameric hemoglobin solution, 10 and 60 minutes after injection
  conversion of plasma hemoglobin to methemoglobin: conversion of a significant proportion of plasma hemoglobin to inactive methemoglobin
[3]; wild type mice pretreated with inhaled nitric oxide at 80 ppm for 15 minutes
  increase of LVESP, LVEDP, SVR, Ea and τ induced by murine tetrameric hemoglobin infusion: abolished the increase of LVESP, LVEDP, SVR, Ea, and τ

## O=NO [sodium nitrite, Sodium nitrite]
Awake mice; awake mice, 48 nmol sodium nitrite i.v. five minutes before hemoglobin (0.48 g/kg)
  systemic hypertension caused by subsequent infusion of murine tetrameric hemoglobin: blocked the systemic hypertension
Awake mice; awake mice, 48 nmol sodium nitrite via tail vein
  blood pressure before murine tetrameric hemoglobin was infused: did not alter blood pressure
Plasma hemoglobin [2]; mouse, in vivo
  plasma methemoglobin level: 10±2%

## HBOC-201: a chemically cross-linked bovine hemoglobin formulated in a salt solution; Biopure
Awake lambs; in vivo
  mean arterial pressure after infusion: increase
  pulmonary arterial pressure after infusion: increase
  pulmonary vascular resistance after infusion: increase
  systemic vascular resistance after infusion: increase

## Tetrameric Hb: tetrameric hemoglobin solution (4 g/dl) prepared from lysed whole blood of wild type C57BL/6 mice
Awake mice
  tail systolic blood pressure after intravenous injection: significant increase in systolic blood pressure
Awake mice; listed as murine tetrameric hemoglobin solution
  tail systolic blood pressure after intravenous injection: significant elevation in blood pressure
Awake mice; solution containing 14.5% methemoglobin
  systemic blood pressure after infusion: caused systemic hypertension
[3]; [6]
  CO (cardiac output): 9 ± 1 mL/min
  CVP (central venous pressure): 4 ± 0 mmHg
  Ea (arterial elastance): 8 ± 1 mmHg/μl
  HR (heart rate): 553 ± 18 bpm
  LVEDP (left ventricular end-diastolic pressure): 8 ± 2 mmHg
  LVESP (left ventricular end-systolic pressure): 117 ± 5 mmHg
  SVR (systemic vascular resistance): 15 ± 2 dynes*sec/cm^2
  Tau (time constant of isovolumic relaxation): 6 ± 1 ms
  dP/dtmax (maximum rate of developed left ventricular pressure): 13736 ± 606 mmHg/s
  dP/dtmin (minimum rate of developed left ventricular pressure): −12290 ± 620 mmHg/s
[3]; [7]
  CO (cardiac output): 10 ± 1 mL/min
  CVP (central venous pressure): 3 ± 0 mmHg
  Ea (arterial elastance): 9 ± 1 mmHg/μl
  HR (heart rate): 602 ± 12 bpm
  LVEDP (left ventricular end-diastolic pressure): 12 ± 1 mmHg
  LVESP (left ventricular end-systolic pressure): 158 ± 5 mmHg
  SVR (systemic vascular resistance): 16 ± 1 dynes*sec/cm^2
  Tau (time constant of isovolumic relaxation): 8 ± 1 ms
  dP/dtmax (maximum rate of developed left ventricular pressure): 12260 ± 750 mmHg/s
  dP/dtmin (minimum rate of developed left ventricular pressure): −10110 ± 640 mmHg/s
[3]; [8]
  CO (cardiac output): 12 ± 1 mL/min
  CVP (central venous pressure): 4 ± 0 mmHg
  Ea (arterial elastance): 5 ± 0 mmHg/μl
  HR (heart rate): 603 ± 20 bpm
  LVEDP (left ventricular end-diastolic pressure): 6 ± 1 mmHg
  LVESP (left ventricular end-systolic pressure): 101 ± 4 mmHg
  SVR (systemic vascular resistance): 8 ± 1 dynes*sec/cm^2
  Tau (time constant of isovolumic relaxation): 5 ± 0 ms
  dP/dtmax (maximum rate of developed left ventricular pressure): 11230 ± 750 mmHg/s
  dP/dtmin (minimum rate of developed left ventricular pressure): −10650 ± 430 mmHg/s
[3]; anesthetized NOS3−/− mice
  effect of infusion on invasive hemodynamic parameters: did not alter HR, LVESP, LVEDP, CO, dP/dtmax, dP/dtmin, SVR, Ea, τ, or CVP
[3]; anesthetized wild type mice
  effect of infusion on invasive hemodynamic parameters: increased LVESP, LVEDP, SVR, Ea, and τ and decreased CO without affecting dP/dtmax, dP/dtmin, or CVP
